In US8802895B2, “Amide derivatives of benzene-sulfonanilide, pharmaceutical composition thereof and method for cancer treatment using the same” (Cleveland State University, priority 2010, dated 2014):

What was measured:
Assay type in all cases: cell-based
[1] = tested on: SNB-19; experiment: NCIDTP 60 cancer cell lines screening, CNS Cancer panel; conditions: SNB-19
[2] = tested on: SK-OV-3; experiment: NCIDTP 60 cancer cell lines screening, Ovarian Cancer panel
[3] = tested on: HS 578T; experiment: NCIDTP 60 cancer cell lines screening, Breast Cancer panel
[4] = tested on: DU-145; experiment: NCIDTP 60 cancer cell lines screening, Prostate Cancer panel
[5] = tested on: CCRF-CEM; experiment: NCIDTP 60 cancer cell lines screening, Leukemia panel
[6] = tested on: BT-549; experiment: NCIDTP 60 cancer cell lines screening, Breast Cancer panel
[7] = tested on: HOP-62; experiment: NCIDTP 60 cancer cell lines screening, Non-Small Cell Lung Cancer panel
[8] = tested on: SF-295; experiment: NCIDTP 60 cancer cell lines screening, CNS Cancer panel

Cc1ccc(C)c(COc2cc(NC(=O)c3ccc4c(c3)OCO4)ccc2N(C)S(C)(=O)=O)c1 [Compound #10, Benzo[1,3]dioxole-5-carboxylic acid [3-(2,5-dimethyl-benzyloxy)-4-(methanesulfonyl-methyl-amino)-phenyl]-amide]
Percent Growth ([1]; Log10 Concentration −4.0 Molar): 39%
Percent Growth ([1]; Log10 Concentration −5.0 Molar): 30%
Percent Growth ([1]; Log10 Concentration −6.0 Molar): 36%
Percent Growth ([1]; Log10 Concentration −7.0 Molar): 89%
Percent Growth ([1]; Log10 Concentration −8.0 Molar): 93%
GI50 ([2]; Homo sapiens, SK-OV-3): 285 nM
CC50 ([2]; Homo sapiens, SK-OV-3, read-out: LC50): > 100 µM
TGI ([2]; SK-OV-3): >1.00E−4 Molar
Percent Growth ([2]; SK-OV-3, Log10 Concentration −4.0 Molar): 5%
Percent Growth ([2]; SK-OV-3, Log10 Concentration −5.0 Molar): 5%
Percent Growth ([2]; SK-OV-3, Log10 Concentration −6.0 Molar): 8%
Percent Growth ([2]; SK-OV-3, Log10 Concentration −7.0 Molar): 85%
Percent Growth ([2]; SK-OV-3, Log10 Concentration −8.0 Molar): 99%
Percent Growth ([3]; HS 578T, Log10 Concentration −4.0 Molar): 3%
Percent Growth ([3]; HS 578T, Log10 Concentration −5.0 Molar): −9%
Percent Growth ([3]; HS 578T, Log10 Concentration −6.0 Molar): −5%
Percent Growth ([3]; HS 578T, Log10 Concentration −7.0 Molar): 47%
Percent Growth ([3]; HS 578T, Log10 Concentration −8.0 Molar): 90%
CC50 ([3]; Homo sapiens, Hs-578T, read-out: LC50): > 100 µM
GI50 ([3]; Homo sapiens, HS 578T): 87 nM
TGI ([4]; DU-145): 4.57E−7 Molar
Percent Growth ([4]; DU-145, Log10 Concentration −4.0 Molar): −28%
Percent Growth ([4]; DU-145, Log10 Concentration −5.0 Molar): −39%
Percent Growth ([4]; DU-145, Log10 Concentration −6.0 Molar): −37%
Percent Growth ([4]; DU-145, Log10 Concentration −7.0 Molar): 72%
Percent Growth ([4]; DU-145, Log10 Concentration −8.0 Molar): 96%
GI50 ([4]; Homo sapiens, DU-145): 159 nM
CC50 ([4]; Homo sapiens, DU-145, read-out: LC50): > 100 µM
TGI [5]: >1.00E−4 Molar
GI50 ([5]; Homo sapiens): 48.5 nM
CC50 ([5]; Homo sapiens, read-out: LC50): > 100 µM
Percent Growth ([5]; Log10 Concentration −4.0 Molar): 16%
Percent Growth ([5]; Log10 Concentration −5.0 Molar): 14%
Percent Growth ([5]; Log10 Concentration −6.0 Molar): 13%
Percent Growth ([5]; Log10 Concentration −7.0 Molar): 31%
Percent Growth ([5]; Log10 Concentration −8.0 Molar): 92%
TGI ([6]; BT-549): >1.00E−4 Molar
Percent Growth ([6]; BT-549, Log10 Concentration −4.0 Molar): 21%
Percent Growth ([6]; BT-549, Log10 Concentration −5.0 Molar): 13%
Percent Growth ([6]; BT-549, Log10 Concentration −6.0 Molar): 45%
Percent Growth ([6]; BT-549, Log10 Concentration −7.0 Molar): 70%
Percent Growth ([6]; BT-549, Log10 Concentration −8.0 Molar): 92%
GI50 ([6]; Homo sapiens, BT-549): 656 nM
CC50 ([6]; Homo sapiens, BT-549, read-out: LC50): > 100 µM
TGI ([7]; HOP-62): >1.00E−4 Molar
Percent Growth ([7]; HOP-62, Log10 Concentration −4.0 Molar): 19%
Percent Growth ([7]; HOP-62, Log10 Concentration −5.0 Molar): 18%
Percent Growth ([7]; HOP-62, Log10 Concentration −6.0 Molar): 18%
Percent Growth ([7]; HOP-62, Log10 Concentration −7.0 Molar): 84%
Percent Growth ([7]; HOP-62, Log10 Concentration −8.0 Molar): 102%
GI50 ([7]; Homo sapiens, HOP-62): 329 nM
CC50 ([7]; Homo sapiens, HOP-62, read-out: LC50): > 100 µM
GI50 ([8]; Homo sapiens, SF-295): 98.3 nM
CC50 ([8]; Homo sapiens, SF-295, read-out: LC50): > 100 µM
TGI ([8]; SF-295): 6.26E−7 Molar
Percent Growth ([8]; SF-295, Log10 Concentration −4.0 Molar): −15%
Percent Growth ([8]; SF-295, Log10 Concentration −5.0 Molar): −16%
Percent Growth ([8]; SF-295, Log10 Concentration −6.0 Molar): −13%
Percent Growth ([8]; SF-295, Log10 Concentration −7.0 Molar): 50%
Percent Growth ([8]; SF-295, Log10 Concentration −8.0 Molar): 92%
